Values of other authors as cited in publication PMC4552746, “Conformational Properties of Seven Toac-Labeled Angiotensin I Analogues Correlate with Their Muscle Contraction Activity and Their Ability to Act as ACE Substrates” (PLoS ONE, 2015).

System: thoracic rabbit aorta strips
Set-up: method as in earlier work
Conditions: ref 48 (Cordopatis and Theodoropoulos)

For [1-Aib]-angiotensin II [Aib^1-AngII], the “Potency, in words” value is listed as “displays high potency”.
